Results from PubChem BioAssay (NCI).
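Grown in 96-well plates, cells were treated for 48 hours with each compound at five concentrations. Insufficient inhibition: endpoint recorded as highest concentration tested. GI50: concentration for 50% inhibition of growth. Definition used: TGI = concentration required for complete inhibition of growth.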

What was measured:
Experiment in all cases: DTP human tumour cell line panel, 48 h
[1] = tested on: MDA-MB-435
[2] = tested on: SNB-19 CNS
[3] = tested on: 786-0 renal
[4] = tested on: HCC-2998 colon
[5] = tested on: OVCAR-4 ovarian
[6] = tested on: TK-10 renal
[7] = tested on: NCI-H226 lung
[8] = tested on: SR leukemia
[9] = tested on: SF-539 CNS
[10] = tested on: COLO 205 colon
[11] = tested on: UO-31 renal
[12] = tested on: BT-549 breast
[13] = tested on: HL-60(TB) leukemia
[14] = tested on: MOLT-4 leukemia
[15] = tested on: SNB-75 CNS
[16] = tested on: HOP-62 NSCLC
[17] = tested on: KM12 colon
[18] = tested on: A549 NSCLC
[19] = tested on: NCI-H522 lung
[20] = tested on: T-47D breast
[21] = tested on: A498 renal
[22] = tested on: RPMI-8226 leukemia
[23] = tested on: MCF7 breast
[24] = tested on: NCI/ADR-RES ovarian
[25] = tested on: M14 melanoma
[26] = tested on: OVCAR-8 ovarian
[27] = tested on: SK-MEL-2 melanoma
[28] = tested on: EKVX NSCLC
[29] = tested on: NCI-H23 lung

With Cc1cn2c(/C=C3\C(=O)N(C)c4ccc(O)cc43)c(C)nc2s1 the GI50 [1] was 1.19 µM, the TGI [1] was 3.92 µM and the GI50 [2] was 3.64 µM. It also gave a TGI [2] of 39.1 µM, a GI50 [3] of 6.41 µM and a TGI [3] of over 100 µM. It also gave a GI50 [4] of 7.37 µM, a TGI [4] of 36 µM and a GI50 [5] of 20.5 µM. It also gave a TGI [5] of over 100 µM, a GI50 [6] of 16.1 µM and a TGI [6] of over 100 µM. It also gave a GI50 [7] of 52.1 µM, a TGI [7] of over 100 µM and a GI50 [8] of 1.98 µM. For the same compound, the TGI [8] was 9.91 µM, the GI50 [9] was 5.58 µM and the TGI [9] was 28 µM. It also gave a GI50 [10] of 4.29 µM, a TGI [10] of 27.5 µM and a GI50 [11] of 9.03 µM. It also gave a TGI [11] of over 100 µM, a GI50 [12] of 7.57 µM and a TGI [12] of over 100 µM. For the same compound, the GI50 [13] was 2.15 µM, the TGI [13] was 6.1 µM and the GI50 [14] was 4.71 µM. It also gave a TGI [14] of 34.7 µM, a GI50 [15] of 2.86 µM and a TGI [15] of 10.2 µM. It also gave a GI50 [16] of 18.2 µM, a TGI [16] of over 100 µM and a GI50 [17] of 2.38 µM. For the same compound, the TGI [17] was over 100 µM, the GI50 [18] was 7.9 µM and the TGI [18] was over 100 µM. The GI50 [19] was 3.02 µM, the TGI [19] was 13.7 µM and the GI50 [20] was 4.48 µM. It also gave a TGI [20] of 64.5 µM, a GI50 [21] of 21.6 µM and a TGI [21] of 60.4 µM. The GI50 [22] was 5.98 µM, the TGI [22] was over 100 µM and the GI50 [23] was 2.97 µM. The TGI [23] was 11.9 µM, the GI50 [24] was 8.27 µM and the TGI [24] was over 100 µM. The GI50 [25] was 3.43 µM, the TGI [25] was 25.1 µM and the GI50 [26] was 11.3 µM. It also gave a TGI [26] of over 100 µM, a GI50 [27] of 3.33 µM and a TGI [27] of 18.4 µM. The GI50 [28] was 14.8 µM, the TGI [28] was over 100 µM and the GI50 [29] was 11.9 µM. The TGI [29] was over 100 µM.
